# Measurements taken from patent US8921270B2, “Method for pre-emergent weed control using triazine-based herbicide” (Amvac Chemical Corporation, priority 2011, dated 2014).
# Legend:
# [1] = tested on: corn; conditions: in vivo
# Protocol: Several scientific and replicated field research trials were conducted in multiple locations to evaluate weed control and crop tolerance of herbicide compositions containing about 80% by weight of ametryn active ingredient in the form of a water dispersible granule (WDG). The herbicide compositions were applied to the soil surface with or without weeds present at specific intervals i) before planting (preplant), ii) prior to planting and incorporated into the soil (preplant incorporated), and iii) after planting of the corn, but prior to emergence (preemergence).
# Small plot research trials were conducted using a statistical design known as Randomized Complete Block Design (RCBD), which assumes that a population of experimental units can be divided into a number of relatively homogeneous subpopulations or blocks. […] In the analysis, the variation among blocks can be partitioned out of the experimental error (MSE), thereby reducing this quantity and increasing the power of the test. […]
# Efficacy on weeds and crop tolerance evaluations were conducted at specified intervals for each trial. […] Crop tolerance was evaluated at intervals of 7 to 14, 21 to 28, and 42 to 56 days after corn emergence in these trials. […] In an additional trial, efficacy of ametryn at rates of 1.2, 1.6 and 2.4 lb ai/a applied PRE was evaluated on grass and broadleaf weeds at the same intervals as the earlier trials. […]
# [2] = tested on: corn; conditions: in vivo; remark: listed apart in the source
# Protocol: Several scientific and replicated field research trials were conducted in multiple locations to evaluate weed control and crop tolerance of herbicide compositions containing about 80% by weight of […] active ingredient in the form of a water dispersible granule (WDG). The herbicide compositions were applied to the soil surface with or without weeds present at specific intervals i) before planting ([…]) prior to planting and incorporated into the soil ([…] incorporated), and iii) after planting of the corn, but prior to emergence (preemergence). Small plot research trials were conducted using a statistical design known as Randomized Complete Block Design (RCBD), which assumes that a population of experimental units can be divided into a number of relatively homogeneous subpopulations or blocks. […] In the analysis, the variation among blocks can be partitioned out of the experimental error (MSE), thereby reducing this quantity and increasing the power of the test. […] Crop tolerance was evaluated at intervals of 7 to 14, 21 to 28, and 42 to 56 days after corn emergence in these trials. […] Crop tolerance was evaluated at intervals of 23, 33, 41 and 56 days after corn emergence in these trials. […] Corn injury (height of corn, number of plants emerged) was measured as visual injury (% injury) at three different times during the season. […]
compound,measurement,setting,value
"CCNc1nc(NC(C)C)nc(SC)n1 [ametryn, 2-ethylamino-4-isopropylamino-6-methylthio-s-triazine]",Percent corn injury (safety to corn),[1],excellent safety
same,Corn injury (visual injury),[2],No injury
